Results: patent EP0145314A1, “Antifungal triazole compound” (IMPERIAL CHEMICAL INDUSTRIES PLC, priority 1983, dated 1985)

Assays:
[1] = system: Candida albicans and Trichophyton mentagrophytes var. quinkeanum; assay: Oral antifungal test in mice inoculated with Candida (vagina) and Trichophyton (back), minimum effective dose; format: in vivo; details: 168 h; female mice, oral dosing twice on day 0 and once daily on days 1-4; skin lesions scored and vaginal samples cultured on day 7; read-out: minimum effective dose (MED)
Description: The following Monday (day 0) they are clipped on the back and then dosed orally with the test compound. They are then inoculated with Candida albicans in the vagina and Trichophyton mentagrophytes var. quinkeanum on the back, and then given a second dose of the same compound. Dosing is repeated once daily on days 1-4. On day 7 skin lesions are scored visually and vaginal samples taken for culture on agar. Groups of 5 mice are used and the compound is dosed initially at a level of 250 mg./kg. The dose is then reduced sequentially until a minimum effective dose (MED) is found. The MED for 2-(2-fluoro-4-trifluoromethylphenyl)-l,3-di(l,2,4-triazol-l-yl)-2-propanol in this test was 5 mg. per kg.

[2] = Teratogenicity / maternal toxicity in the rabbit; format: in vivo; details: lowest dose at which impaired maternal weight gain was observed
Description: As indicated above, the compound of this invention has been found not to be teratogenic at doses up to the maternally toxic dose. In both the rabbit and the rat, the maternally toxic dose was taken to be the lowest dose at which impaired maternal weight gain was observed. In the rabbit, this dose was 10 mg./kg. and in the rat between 25 and 50 mg./kg.

OC(Cn1cncn1)(Cn1cncn1)c1ccc(C(F)(F)F)cc1F [2-(2-fluoro-4-trifluoromethylphenyl)-l,3-di(l,2,4-triazol-l-yl)-2-propanol]
minimal effective dose [1]: 5 mg/kg | maternally toxic dose [2]: 10 mg/kg
